ChEMBL document CHEMBL2346623, “Deconstruction of sulfonamide inhibitors of the urotensin receptor (UT) and design and synthesis of benzylamine and benzylsulfone antagonists” (Bioorg Med Chem Lett, 2013)

tested on: not listed separately; assay: Drug metabolism in rat liver microsomes relative to total liver blood flow; assay type: ADME, Microsome; details: read-out: Drug metabolism

| hepatic extraction ratio | Compound |
| --- | --- |
| < 0.06 | COc1cc(Br)c(CNc2ccc(C(F)(F)F)c(O[C@H]3CCN(C)C3)c2)cc1OC |

target: T1, Urotensin-2 receptor (Homo sapiens, UniProt Q9UKP6); assay: Displacement of [125I]-U2 from human recombinant urotensin2 receptor expressed in human Chem-2 cells after 4 hrs by scintillation proximity assay; assay type: cell-based; details: not given
T1 sequence (Q9UKP6 whole entry): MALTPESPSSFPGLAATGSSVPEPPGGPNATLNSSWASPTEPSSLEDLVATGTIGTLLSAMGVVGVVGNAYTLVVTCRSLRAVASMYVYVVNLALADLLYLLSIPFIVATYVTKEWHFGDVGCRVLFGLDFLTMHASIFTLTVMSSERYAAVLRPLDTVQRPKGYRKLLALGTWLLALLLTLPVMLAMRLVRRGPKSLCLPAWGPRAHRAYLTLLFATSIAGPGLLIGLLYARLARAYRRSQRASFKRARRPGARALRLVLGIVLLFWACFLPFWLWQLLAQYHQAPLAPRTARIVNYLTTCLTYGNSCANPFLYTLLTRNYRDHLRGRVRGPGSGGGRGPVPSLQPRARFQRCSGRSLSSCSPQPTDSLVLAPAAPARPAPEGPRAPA

| IC50 [nM] | Compound |
| --- | --- |
| 245 | COc1cc(Br)c([S+]([O-])Cc2ccc(Cl)c(O[C@@H]3CCN(C)C3)c2)cc1OC (stereo partly drawn) |
| 134 | COc1cc(Br)c(S(=O)(=O)Nc2ccc(C(F)(F)F)c(OCCN(C)C)c2)cc1OC |
| 3500 | CN(C)CCOc1cc(NCc2ccccc2Br)ccc1Cl |
| 440 | COc1cc(Br)c(SCc2ccc(Cl)c(O[C@@H]3CCN(C)C3)c2)cc1OC |
| 217 | COc1cc(Br)c(CNc2ccc(C(F)(F)F)c(O[C@H]3CCN(C)C3)c2)cc1OC |
| 1350 | COc1cc(Br)c(CNc2ccc(Cl)c(O[C@H]3CCN(C)C3)c2)cc1OC |
| 840 | COc1cc(Br)c(S(=O)(=O)Nc2ccc(C(F)(F)F)c(OCCN3CCN(C)CC3)c2)cc1OC |
| 450 | CN1CC[C@H](Oc2cc(NCc3cc4c(cc3Br)OCO4)ccc2C(F)(F)F)C1 |
| > 10000 | CN(C)CCOc1cc(NCc2ccccc2)ccc1Cl |
| 520 | CN(C)CCOc1cc(NCc2ccccc2C(F)(F)F)ccc1Cl |
| > 10000 | COc1cc(Br)c(S(=O)(=O)Nc2ccc(C(F)(F)F)c(F)c2)cc1OC |
| 1200 | COc1cc(Br)c(CNc2ccc(Cl)c(OCCN(C)C)c2)cc1OC |
| 2100 | COc1cc(Br)c(S(=O)(=O)Nc2ccc(C(F)(F)F)c(OC[C@@H]3CCCN3C)c2)cc1OC |
| 800 | COc1cc(Br)c(S(=O)(=O)Nc2ccc(C(F)(F)F)c(OC[C@H]3CCCN3C)c2)cc1OC |
| 237 | COc1cc(Br)c(CNc2ccc(Cl)c(O[C@@H]3CCN(C)C3)c2)cc1OC |
| 2700 | CN1CC[C@H](Oc2cc(NCc3cccs3)ccc2C(F)(F)F)C1 |
| 620 | CN1CC[C@H](Oc2cc(NCc3c(Br)ccc4c3OCO4)ccc2C(F)(F)F)C1 |
| 691 | COc1cccc(CNc2ccc(C(F)(F)F)c(O[C@H]3CCN(C)C3)c2)c1 |
| 821 | CN1CC[C@H](Oc2cc(NCc3ccccc3Br)ccc2C(F)(F)F)C1 |
| 23 | COc1cc(Br)c(S(=O)(=O)Nc2ccc(Cl)c(O[C@@H]3CCN(C)C3)c2)cc1OC |
| 6200 | COc1cc(Br)c(S(=O)(=O)Nc2ccc(C(F)(F)F)c(OCCN3CCOCC3)c2)cc1OC |

target: T1, Urotensin-2 receptor; assay: Displacement of [125I]-U2 from recombinant human urotensin2 receptor expressed in human U2OS cells after 30 mins by gamma counting analysis; assay type: cell-based; details: not given

| IC50 [nM] | Compound |
| --- | --- |
| < 5 | Cc1cc(NC(=O)NCCN2CCC(O)(Cc3ccccc3)CC2)c2ccccc2n1 [PALOSURAN] |

tested on: not listed separately; assay: Solubility of the compound at pH 4.5; assay type: physicochemical; details: buffer

| solubility [µg/mL] | Compound |
| --- | --- |
| > 52 | COc1cc(Br)c(CNc2ccc(C(F)(F)F)c(O[C@H]3CCN(C)C3)c2)cc1OC |
| > 87 | COc1cc(Br)c(S(=O)(=O)Cc2ccc(Cl)c(O[C@@H]3CCN(C)C3)c2)cc1OC |

target: T1, Urotensin-2 receptor; assay: Antagonist activity at recombinant human urotensin2 receptor expressed in CHO cells assessed as inhibition of urotensin2-stimulated Ca2+ mobilization after 1 hr by FLIPR assay; assay type: functional, cell-based; details: not given

| IC50 [nM] | Compound |
| --- | --- |
| 100 | COc1cc(Br)c(S(=O)(=O)Nc2ccc(C(F)(F)F)c(OCCN(C)C)c2)cc1OC |
| 6000 | CN(C)CCOc1cc(NCc2ccccc2Br)ccc1Cl |
| 191 | COc1cc(Br)c(CNc2ccc(C(F)(F)F)c(O[C@H]3CCN(C)C3)c2)cc1OC |
| 1450 | COc1cc(Br)c(CNc2ccc(Cl)c(O[C@H]3CCN(C)C3)c2)cc1OC |
| 950 | CN1CC[C@H](Oc2cc(NCc3cc4c(cc3Br)OCO4)ccc2C(F)(F)F)C1 |
| 765 | CN(C)CCOc1cc(NCc2ccccc2C(F)(F)F)ccc1Cl |
| 1300 | COc1cc(Br)c(CNc2ccc(Cl)c(OCCN(C)C)c2)cc1OC |
| 350 | COc1cc(Br)c(S(=O)(=O)Nc2ccc(C(F)(F)F)c(OC[C@H]3CCCN3C)c2)cc1OC |
| 1330 | COc1cc(Br)c(CNc2ccc(Cl)c(O[C@@H]3CCN(C)C3)c2)cc1OC |
| 2000 | CN1CC[C@H](Oc2cc(NCc3cccs3)ccc2C(F)(F)F)C1 |
| 1400 | CN1CC[C@H](Oc2cc(NCc3c(Br)ccc4c3OCO4)ccc2C(F)(F)F)C1 |
| 1130 | COc1cccc(CNc2ccc(C(F)(F)F)c(O[C@H]3CCN(C)C3)c2)c1 |
| 1870 | CN1CC[C@H](Oc2cc(NCc3ccccc3Br)ccc2C(F)(F)F)C1 |
| 43 | COc1cc(Br)c(S(=O)(=O)Nc2ccc(Cl)c(O[C@@H]3CCN(C)C3)c2)cc1OC |

tested on: not listed separately; assay: Drug metabolism in human liver microsomes relative to total liver blood flow; assay type: ADME, Microsome; details: read-out: Drug metabolism

| hepatic extraction ratio | Compound |
| --- | --- |
| 0.72 | COc1cc(Br)c([S+]([O-])Cc2ccc(Cl)c(O[C@@H]3CCN(C)C3)c2)cc1OC (stereo partly drawn) |
| 0.76 | COc1cc(Br)c(SCc2ccc(Cl)c(O[C@@H]3CCN(C)C3)c2)cc1OC |
| 0.43 | COc1cc(Br)c(CNc2ccc(C(F)(F)F)c(O[C@H]3CCN(C)C3)c2)cc1OC |
| 0.36 | COc1cc(Br)c(CNc2ccc(Cl)c(O[C@H]3CCN(C)C3)c2)cc1OC |
| 0.53 | Cc1cc(NC(=O)NCCN2CCC(O)(Cc3ccccc3)CC2)c2ccccc2n1 [PALOSURAN] |
| 0.28 | COc1cc(Br)c(CNc2ccc(Cl)c(O[C@@H]3CCN(C)C3)c2)cc1OC |
| 0.65 | COc1cc(Br)c(S(=O)(=O)Nc2ccc(Cl)c(O[C@@H]3CCN(C)C3)c2)cc1OC |

target: T2, Urotensin-2 receptor (Rattus norvegicus, UniProt P49684); assay: Antagonist activity at rat urotensin2 receptor assessed as inhibition of urotensin2-stimulated Ca2+ mobilization by cell-based assay; assay type: functional; details: not given
T2 sequence (P49684 whole entry): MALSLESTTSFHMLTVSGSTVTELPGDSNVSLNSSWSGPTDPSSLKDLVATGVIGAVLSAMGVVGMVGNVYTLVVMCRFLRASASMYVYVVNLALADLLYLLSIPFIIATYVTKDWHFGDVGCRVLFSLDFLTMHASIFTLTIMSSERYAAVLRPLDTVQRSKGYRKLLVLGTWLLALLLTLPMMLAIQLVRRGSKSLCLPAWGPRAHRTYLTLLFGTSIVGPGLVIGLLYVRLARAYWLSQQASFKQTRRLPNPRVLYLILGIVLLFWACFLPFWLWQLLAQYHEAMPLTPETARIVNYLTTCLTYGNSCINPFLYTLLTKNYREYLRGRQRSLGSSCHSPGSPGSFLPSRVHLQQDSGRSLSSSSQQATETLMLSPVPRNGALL

| IC50 [nM] | Compound |
| --- | --- |
| 3900 | COc1cc(Br)c(CNc2ccc(C(F)(F)F)c(O[C@H]3CCN(C)C3)c2)cc1OC |
| 2000 | COc1cc(Br)c(S(=O)(=O)Cc2ccc(Cl)c(O[C@@H]3CCN(C)C3)c2)cc1OC |

target: T1, Urotensin-2 receptor; assay: Antagonist activity at recombinant human urotensin2 receptor expressed in CHO cells assessed as inhibition of urotensin2-stimulated Ca2+ mobilization incubated 10 mins prior to urotensin2 stimulation measured after 10 mins by fluorometric analysis; assay type: functional, cell-based; details: not given

| IC50 [nM] | Compound |
| --- | --- |
| 39 | Cc1cc(NC(=O)NCCN2CCC(O)(Cc3ccccc3)CC2)c2ccccc2n1 [PALOSURAN] |

target: T3, Urotensin-2 receptor (Mus musculus, UniProt Q8VIH9); assay: Antagonist activity at mouse urotensin2 receptor assessed as inhibition of urotensin2-stimulated Ca2+ mobilization by cell-based assay; assay type: functional; details: not given
T3 sequence (Q8VIH9 whole entry): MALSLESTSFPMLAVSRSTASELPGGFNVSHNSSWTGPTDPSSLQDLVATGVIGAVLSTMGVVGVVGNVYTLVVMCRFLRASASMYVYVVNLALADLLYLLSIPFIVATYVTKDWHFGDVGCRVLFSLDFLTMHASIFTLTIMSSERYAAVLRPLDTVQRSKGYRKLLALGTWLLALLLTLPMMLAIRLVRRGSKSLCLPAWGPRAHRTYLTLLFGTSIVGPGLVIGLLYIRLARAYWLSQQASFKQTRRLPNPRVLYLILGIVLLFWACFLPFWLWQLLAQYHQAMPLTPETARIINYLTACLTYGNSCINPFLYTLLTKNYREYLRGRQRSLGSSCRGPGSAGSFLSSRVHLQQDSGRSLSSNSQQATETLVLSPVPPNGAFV

| IC50 [nM] | Compound |
| --- | --- |
| 6400 | COc1cc(Br)c(CNc2ccc(C(F)(F)F)c(O[C@H]3CCN(C)C3)c2)cc1OC |
| 4700 | COc1cc(Br)c(S(=O)(=O)Cc2ccc(Cl)c(O[C@@H]3CCN(C)C3)c2)cc1OC |

tested on: not listed separately; assay: Solubility of the compound at pH 7.4; assay type: physicochemical; details: buffer

| solubility [µg/mL] | Compound |
| --- | --- |
| > 52 | COc1cc(Br)c(CNc2ccc(C(F)(F)F)c(O[C@H]3CCN(C)C3)c2)cc1OC |
| > 87 | COc1cc(Br)c(S(=O)(=O)Cc2ccc(Cl)c(O[C@@H]3CCN(C)C3)c2)cc1OC |
